Experimental data: US20260262643A1, “HERBICIDAL BENZOXAZINES” (FMC CORPORATION, priority 2022, published 2026)

How the values were obtained:
blackgrass [1] = assay: Test A preemergence; format: in vivo, Alopecurus myosuroides
How it was run: (§1)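 Weeds and crops in loam–sand blend were sprayed preemergence onto soil or postemergence at 2–10 cm (one- to two-leaf stage). Test chemicals were in a non-phytotoxic solvent with surfactant. After 10 days in the greenhouse, injury was rated visually against untreated controls on a 0 (no effect) to 100 (complete control) scale.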

corn [2] = assay: Test A preemergence; format: in vivo, Zea mays
How it was run: as §1

foxtail, giant [3] = assay: Test A preemergence; format: in vivo, Setaria faberi
How it was run: as §1

goosegrass [4] = assay: Test A preemergence; format: in vivo, Eleusine indica
How it was run: as §1

kochia [5] = assay: Test A preemergence; format: in vivo, Bassia scoparia
How it was run: as §1

oat, wild [6] = assay: Test A preemergence; format: in vivo, Avena fatua
How it was run: as §1

pigweed, palmer [7] = assay: Test A preemergence; format: in vivo, Amaranthus palmeri
How it was run: as §1

ragweed [8] = assay: Test A preemergence; format: in vivo, Ambrosia artemisiifolia
How it was run: as §1

ryegrass, Italian [9] = assay: Test A preemergence; format: in vivo, Lolium multiflorum
How it was run: as §1

soybean [10] = assay: Test A preemergence; format: in vivo, Glycine max
How it was run: as §1

wheat [11] = assay: Test A preemergence; format: in vivo, Triticum aestivum
How it was run: as §1

blackgrass [12] = assay: Test A postemergence; format: in vivo, Alopecurus myosuroides
How it was run: as §1

corn [13] = assay: Test A postemergence; format: in vivo, Zea mays
How it was run: as §1

foxtail, giant [14] = assay: Test A postemergence; format: in vivo, Setaria faberi
How it was run: as §1

goosegrass [15] = assay: Test A postemergence; format: in vivo, Eleusine indica
How it was run: as §1

kochia [16] = assay: Test A postemergence; format: in vivo, Bassia scoparia
How it was run: as §1

oat, wild [17] = assay: Test A postemergence; format: in vivo, Avena fatua
How it was run: as §1

pigweed, palmer [18] = assay: Test A postemergence; format: in vivo, Amaranthus palmeri
How it was run: as §1

ragweed [19] = assay: Test A postemergence; format: in vivo, Ambrosia artemisiifolia
How it was run: as §1

ryegrass, Italian [20] = assay: Test A postemergence; format: in vivo, Lolium multiflorum
How it was run: as §1

soybean [21] = assay: Test A postemergence; format: in vivo, Glycine max
How it was run: as §1

wheat [22] = assay: Test A postemergence; format: in vivo, Triticum aestivum
How it was run: as §1

galium = assay: Test A postemergence; format: in vivo, Galium aparine
How it was run: as §1

horseweed = assay: Test A postemergence; format: in vivo, Erigeron canadensis
How it was run: as §1

barnyardgrass = assay: Test B flooded paddy test; format: in vivo, Echinochloa crus-galli; conditions: 250 g ai/ha, Flood, 13 days, 0 to 100 scale (0 no effect, 100 complete control)
How it was run: (§2)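 Each species was raised to the 2-leaf stage. At treatment, each pot received floodwater 3 cm deep, with the chemical delivered into the water. Greenhouse holding followed for 13 days, then percent control was estimated visually versus untreated pots.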

ducksalad = assay: Test B flooded paddy test; format: in vivo, Heteranthera limosa; conditions: 250 g ai/ha, Flood, 13 days, 0 to 100 scale (0 no effect, 100 complete control)
How it was run: as §2

rice = assay: Test B flooded paddy test; format: in vivo, Oryza sativa; conditions: 250 g ai/ha, Flood, 13 days, 0 to 100 scale (0 no effect, 100 complete control)
How it was run: as §2

sedge, umbrella = assay: Test B flooded paddy test; format: in vivo, Cyperus difformis; conditions: 250 g ai/ha, Flood, 13 days, 0 to 100 scale (0 no effect, 100 complete control)
How it was run: as §2

[23] = 125 g ai/ha, visual injury after 10 days, 0 to 100 scale, 0 is no effect, 100 is complete control
[24] = 500 g ai/ha, 0 to 100 scale (0 no effect, 100 complete control), 10 days
[25] = 125 g ai/ha, postemergence, 10 days, visual injury, 0 to 100 scale (0 no effect, 100 complete control)
[26] = 500 g ai/ha, Postemergence, 0 to 100 scale
[27] = 500 g ai/ha, postemergence, 10 days, visual injury, 0 to 100 scale (0 no effect, 100 complete control)

SMILES: C[C@H]1CN(C(=O)c2cc(-n3cncn3)ccc2C(F)(F)F)c2cccc(Cl)c2O1 [Compound 70]
- Plant response rating, Blackgrass (blackgrass [1]; [23]): 30
- Plant response rating, Blackgrass (blackgrass [1]; [24]): 80
- Plant response rating, Corn (corn [2]; [23]): 10
- Plant response rating, Corn (corn [2]; [24]): 20
- Plant response rating, Foxtail, Giant (foxtail, giant [3]; [23]): 20
- Plant response rating, Foxtail, Giant (foxtail, giant [3]; [24]): 100
- Plant response rating, Goosegrass (goosegrass [4]; [23]): 70
- Plant response rating, Goosegrass (goosegrass [4]; [24]): 100
- Plant response rating, Kochia (kochia [5]; [23]): 0
- Plant response rating, Kochia (kochia [5]; [24]): 0
- Plant response rating, Oat, Wild (oat, wild [6]; [23]): 0
- Plant response rating, Oat, Wild (oat, wild [6]; [24]): 70
- Plant response rating, Pigweed, Palmer (pigweed, palmer [7]; [23]): 20
- Plant response rating, Pigweed, Palmer (pigweed, palmer [7]; [24]): 90
- Plant response rating, Ragweed (ragweed [8]; [23]): 0
- Plant response rating, Ragweed (ragweed [8]; [24]): 0
- Plant response rating, Ryegrass, Italian (ryegrass, Italian [9]; [23]): 50
- Plant response rating, Ryegrass, Italian (ryegrass, Italian [9]; [24]): 90
- Plant response rating, Soybean (soybean [10]; [23]): 0
- Plant response rating, Soybean (soybean [10]; [24]): 0
- Plant response rating, Wheat (wheat [11]; [23]): 0
- Plant response rating, Wheat (wheat [11]; [24]): 10
- Plant response rating, Blackgrass (blackgrass [12]; [25]): 30
- Plant response rating, Blackgrass (blackgrass [12]; [26]): 70
- Plant response rating, Corn (corn [13]; [25]): 10
- Plant response rating, Corn (corn [13]; [27]): 10
- Plant response rating, Foxtail, Giant (foxtail, giant [14]; [25]): 10
- Plant response rating, Foxtail, Giant (foxtail, giant [14]; [27]): 30
- Plant response rating, Goosegrass (goosegrass [15]; [25]): 10
- Plant response rating, Goosegrass (goosegrass [15]; [27]): 10
- Plant response rating, Kochia (kochia [16]; [25]): 10
- Plant response rating, Kochia (kochia [16]; [27]): 60
- Plant response rating, Oat, Wild (oat, wild [17]; [27]): 10
- Plant response rating, Pigweed, Palmer (pigweed, palmer [18]; [27]): 70
- Plant response rating, Ragweed (ragweed [19]; [27]): 0
- Plant response rating, Ryegrass, Italian (ryegrass, Italian [20]; [27]): 30
- Plant response rating, Soybean (soybean [21]; [27]): 100
- Plant response rating, Wheat (wheat [22]; [27]): 20
- Plant response rating, Galium (galium; [25]): 50
- Plant response rating, Galium (galium; [27]): 80
- Plant response rating, Horseweed (horseweed; [25]): 0
- Plant response rating, Horseweed (horseweed; [27]): 0
- Plant response rating, Barnyardgrass (barnyardgrass): 0
- Plant response rating, Ducksalad (ducksalad): 0
- Plant response rating, Rice (rice): 0
- Plant response rating, Sedge, Umbrella (sedge, umbrella): 0

SMILES: Cc1ncn(-c2cccc(C(=O)N3C[C@H](C)Oc4c(C)cccc43)c2)n1 [Compound 51]
- Plant response rating, Blackgrass (blackgrass [1]; [23]): 30
- Plant response rating, Blackgrass (blackgrass [1]; [24]): 60
- Plant response rating, Corn (corn [2]; [23]): 20
- Plant response rating, Corn (corn [2]; [24]): 50
- Plant response rating, Foxtail, Giant (foxtail, giant [3]; [23]): 100
- Plant response rating, Foxtail, Giant (foxtail, giant [3]; [24]): 100
- Plant response rating, Goosegrass (goosegrass [4]; [23]): 90
- Plant response rating, Goosegrass (goosegrass [4]; [24]): 100
- Plant response rating, Kochia (kochia [5]; [23]): 70
- Plant response rating, Kochia (kochia [5]; [24]): 90
- Plant response rating, Oat, Wild (oat, wild [6]; [23]): 30
- Plant response rating, Oat, Wild (oat, wild [6]; [24]): 90
- Plant response rating, Pigweed, Palmer (pigweed, palmer [7]; [23]): 0
- Plant response rating, Pigweed, Palmer (pigweed, palmer [7]; [24]): 60
- Plant response rating, Ragweed (ragweed [8]; [23]): 0
- Plant response rating, Ragweed (ragweed [8]; [24]): 0
- Plant response rating, Ryegrass, Italian (ryegrass, Italian [9]; [23]): 90
- Plant response rating, Ryegrass, Italian (ryegrass, Italian [9]; [24]): 100
- Plant response rating, Soybean (soybean [10]; [23]): 90
- Plant response rating, Soybean (soybean [10]; [24]): 100
- Plant response rating, Wheat (wheat [11]; [23]): 20
- Plant response rating, Wheat (wheat [11]; [24]): 60
- Plant response rating, Blackgrass (blackgrass [12]; [25]): 40
- Plant response rating, Blackgrass (blackgrass [12]; [26]): 50
- Plant response rating, Corn (corn [13]; [25]): 30
- Plant response rating, Corn (corn [13]; [26]): 50
- Plant response rating, Foxtail, Giant (foxtail, giant [14]; [25]): 90
- Plant response rating, Foxtail, Giant (foxtail, giant [14]; [26]): 90
- Plant response rating, Goosegrass (goosegrass [15]; [25]): 40
- Plant response rating, Goosegrass (goosegrass [15]; [26]): 80
- Plant response rating, Kochia (kochia [16]; [25]): 60
- Plant response rating, Kochia (kochia [16]; [26]): 70
- Plant response rating, Oat, Wild (oat, wild [17]; [25]): 30
- Plant response rating, Oat, Wild (oat, wild [17]; [26]): 70
- Plant response rating, Pigweed, Palmer (pigweed, palmer [18]; [25]): 20
- Plant response rating, Pigweed, Palmer (pigweed, palmer [18]; [26]): 50
- Plant response rating, Ragweed (ragweed [19]; [25]): 0
- Plant response rating, Ragweed (ragweed [19]; [26]): 0
- Plant response rating, Ryegrass, Italian (ryegrass, Italian [20]; [25]): 70
- Plant response rating, Ryegrass, Italian (ryegrass, Italian [20]; [26]): 90
- Plant response rating, Soybean (soybean [21]; [25]): 100
- Plant response rating, Soybean (soybean [21]; [26]): 100
- Plant response rating, Wheat (wheat [22]; [25]): 30
- Plant response rating, Wheat (wheat [22]; [26]): 80
- Plant response rating, Galium (galium; [25]): 80
- Plant response rating, Galium (galium; [26]): 100
- Plant response rating, Horseweed (horseweed; [25]): 0
- Plant response rating, Horseweed (horseweed; [26]): 20
- Plant response rating, Barnyardgrass (barnyardgrass): 25
- Plant response rating, Ducksalad (ducksalad): 65
- Plant response rating, Rice (rice): 15
- Plant response rating, Sedge, Umbrella (sedge, umbrella): 80
